In patent US10189838B2, “Aza-oxo-indoles for the treatment and prophylaxis of respiratory syncytial virus infection” (Hoffmann-La Roche Inc., priority 2013, dated 2019):

What follows are compounds tested on RSV Long strain (assay: Viral cytopathic effect (CPE) assay, RSV Long strain). Conditions: cell viability after 6 days (Cell Counting kit-8).
Format: cell-based, Respiratory Syncytial Virus
Experimental: EC50: the concentration of a compound where 50% of its maximal protection effect against viral induced CPE is observed
LongStrain: an A subtype RSV strain obtained from ATCC with catalog number VR-26
To measure anti-RSV activity of compounds, 96-well plates are seeded with 6×10^3 cells per well in Dulbecco's modified Eagle's medium (DMEM) containing 10% fetal bovine serum (FBS). Cells are infected the next day with sufficient RSV Long strain (ATCC) to produce an approximately 80-90% cytopathic effect after 6 days, in the presence of serial half-log diluted compound in a total volume of […] per well. The viability of cells is assessed after 6 days using Cell Counting kit-8 (Dojindo Molecular Technologies). The absorbance at 450 nm and referenced at 630 nm is measured to determine 50% effective concentration (EC50)

| Compound | EC50 [nM] |
| --- | --- |
| N=C(N)NCCn1c(CN2C(=O)C3(CC3)c3ccncc32)cc2cc(Cl)ccc21 [Example 28] | 64 |

Same assay, conditions: human respiratory syncytial virus, 144 h, cell viability after 6 days (Cell Counting kit-8)

| Compound | EC50 [nM] |
| --- | --- |
| O=C1N(Cc2cc3nc(Cl)ccc3n2CCCS(=O)(=O)C2CC2)c2cnccc2C12CC2 [Example 4-6, 1′-({5-Chloro-1-[3-(cyclopropylsulfonyl)propyl]-1H-pyrrolo[3,2-b]pyridin-2-yl}methyl)spiro[cyclopropane-1,3′-pyrrolo[2,3-c]pyridin]-2′(1′H)-one] | 29 |
| CS(=O)(=O)CCn1c(CN2C(=O)C3(CC3)c3ccncc32)cc2cnccc21 [Example 1-14, 1′-({1-[2-(Methylsulfonyl)ethyl]-1H-pyrrolo[3,2-c]pyridin-2-yl}methyl)spiro[cyclopropane-1,3′-pyrrolo[2,3-c]pyridin]-2′(1′H)-one] | 77.8 |
| CS(=O)(=O)CCn1c(CN2C(=O)C3(CC3)c3ccncc32)cc2cc(Cl)cc(F)c21 [Example 1-12, 1′-({5-Chloro-7-fluoro-1-[2-(methylsulfonyl)ethyl]-1H-indol-2-yl}methyl)spiro[cyclopropane-1,3′-pyrrolo[2,3-c]pyridin]-2′(1′H)-one] | 3.4 |
| NC(=O)CCCn1c(CN2C(=O)C3(CC3)c3ccncc32)cc2cc(Cl)ccc21 [Example 18-3, 4-{5-Chloro-2-[(2′-oxospiro[cyclopropane-1,3′-pyrrolo[2,3-c]pyridin]-1′(2′H)-yl)methyl]-1H-indol-1-yl}butanamide] | 11 |
| CN(Cc1ccccc1)S(=O)(=O)CCCn1c(CN2C(=O)C3(CC3)c3ccncc32)cc2cc(Cl)cnc21 [Example 4-8, N-Benzyl-3-{5-chloro-2-[(2′-oxospiro[cyclopropane-1,3′-pyrrolo[2,3-c]pyridin]-1′(2′H)-yl)methyl]-1H-pyrrolo[2,3-b]pyridin-1-yl}-N-methylpropane-1-sulfonamide] | 778 |
| CCS(=O)(=O)CCn1c(CN2C(=O)C3(CC3)c3ccncc32)nc2cc(Cl)ccc21 [Example 34-5, 1′-({5-Chloro-1-[2-(ethylsulfonyl)ethyl]-1H-benzimidazol-2-yl}methyl)spiro[cyclopropane-1,3′-pyrrolo[2,3-c]pyridin]-2′(1′H)-one] | 13 |
| O=C1N(Cc2cc3nc(Cl)ccc3n2CCS(=O)(=O)C2CC2)c2cnccc2C12CC2 [Example 4-14, 1′-({5-Chloro-1-[2-(cyclopropylsulfonyl)ethyl]-1H-pyrrolo[3,2-b]pyridin-2-yl}methyl)spiro[cyclopropane-1,3′-pyrrolo[2,3-c]pyridin]-2′(1′H)-one] | 72 |
| CN(C(=O)CCn1c(CN2C(=O)C3(CC3)c3ccncc32)cc2cc(Cl)ccc21)S(=O)(=O)C1CC1 [Example 19-2, 3-{5-Chloro-2-[(2′-oxospiro[cyclopropane-1,3′-pyrrolo[2,3-c]pyridin]-1′(2′H)-yl)methyl]-1H-indol-1-yl}-N-(cyclopropylsulfonyl)-N-methylpropanamide] | 59 |
| NCCn1c(CN2C(=O)C3(CC3)c3ccncc32)cc2cc(Cl)ccc21 [Example 24-5, 1′-{[1-(2-Aminoethyl)-5-chloro-1H-indol-2-yl]methyl}spiro[cyclopropane-1,3′-pyrrolo[2,3-c]pyridin]-2′(1′H)-one] | 64 |
| O=C1N(Cc2cc3cc(Cl)ccc3n2CCCS(=O)(=O)N2C[C@H]3C[C@@H]2CN3)c2cnccc2C12CC2 [Example 24-3, 1′-[(5-Chloro-1-{3-[(1R,4R)-2,5-diazabicyclo[2.2.1]hept-2-ylsulfonyl]propyl}-1H-indol-2-yl)methyl]spiro[cyclopropane-1,3′-pyrrolo[2,3-c]pyridin]-2′(1′H)-one] | 19 |
| CN(C)S(=O)(=O)CCn1c(CN2C(=O)C3(CC3)c3ccncc32)cc2cc(Cl)ccc21 [Example 7-3, 2-{5-Chloro-2-[(2′-oxospiro[cyclopropane-1,3′-pyrrolo[2,3-c]pyridin]-1′(2′H)-yl)methyl]-1H-indol-1-yl}-N,N-dimethylethanesulfonamide] | 23 |
| CS(=O)(=O)CCn1c(CN2C(=O)C3(CC3)c3ccncc32)cc2cc(Cl)ncc21 [Example 5-2, 1′-({5-Chloro-1-[2-(methylsulfonyl)ethyl]-1H-pyrrolo[2,3-c]pyridin-2-yl}methyl)spiro[cyclopropane-1,3′-pyrrolo[2,3-c]pyridin]-2′(1′H)-one] | 269 |
| CS(=O)(=O)CCn1c(CN2C(=O)C3(CC3)c3ccncc32)cc2nc(Cl)ccc21 [Example 2-9, 1′-({5-Chloro-1-[2-(methylsulfonyl)ethyl]-1H-pyrrolo[3,2-b]pyridin-2-yl}methyl)spiro[cyclopropane-1,3′-pyrrolo[2,3-c]pyridin]-2′(1′H)-one] | 63 |
| NC(=O)CCn1c(CN2C(=O)C3(CC3)c3cccnc32)cc2cc(Cl)ccc21 [Example 18-2, 3-{5-Chloro-2-[(2′-oxospiro[cyclopropane-1,3′-pyrrolo[2,3-b]pyridin]-1′(2′H)-yl)methyl]-1H-indol-1-yl}propanamide] | 711 |
| CS(=N)(=O)CCCn1c(CN2C(=O)C3(CC3)c3ccncc32)cc2cc(Cl)ccc21 (centres unmarked) [Example 14-1, 1′-({5-Chloro-1-[3-(S-methylsulfonimidoyl)propyl]-1H-indol-2-yl}methyl)spiro[cyclopropane-1,3′-pyrrolo[2,3-c]pyridin]-2′(1′H)-one] | 6 |
| CS(=O)(=O)NCCCn1c(CN2C(=O)C3(CC3)c3ccncc32)cc2cc(Cl)ccc21 [Example 27-3, N-(3-{5-Chloro-2-[(2′-oxospiro[cyclopropane-1,3′-pyrrolo[2,3-c]pyridin]-1′(2′H)-yl)methyl]-1H-indol-1-yl}propyl)methanesulfonamide] | 499 |
| CS(=O)(=O)CCn1c(CN2C(=O)C3(CC3)c3ccncc32)cc2cc(Br)ccc21 [Example 1-5, 1′-({5-Bromo-1-[2-(methylsulfonyl)ethyl]-1H-indol-2-yl}methyl)spiro[cyclopropane-1,3′-pyrrolo[2,3-c]pyridin]-2′(1′H)-one] | 14 |
| COC(=O)NCCCn1c(CN2C(=O)C3(CC3)c3ccncc32)cc2cc(Cl)ccc21 [Example 30, Methyl(3-{5-chloro-2-[(2′-oxospiro[cyclopropane-1,3′-pyrrolo[2,3-c]pyridin]-1′(2′H)-yl)methyl]-1H-indol-1-yl}propyl)carbamate] | 20 |
| O=C(O)CCn1c(CN2C(=O)C3(CC3)c3ccncc32)cc2cc(Cl)ccc21 [Example 16-1, 3-{5-Chloro-2-[(2′-oxospiro[cyclopropane-1,3′-pyrrolo[2,3-c]pyridin]-1′(2′H)-yl)methyl]-1H-indol-1-yl}propanoic acid] | 390 |
| CS(=O)(=O)CCCc1c(CN2C(=O)C3(CC3)c3ccncc32)[nH]c2cc(Cl)ccc12 [Example 33, 1′-({6-Chloro-3-[3-(methylsulfonyl)propyl]-1H-indol-2-yl}methyl)spiro[cyclopropane-1,3′-pyrrolo[2,3-c]pyridin]-2′(1′H)-one] | 6 |
| CS(=O)(=O)CCn1c(CN2C(=O)C3(CC3)c3ccncc32)cc2cc(F)ccc21 [Example 1-4, 1′-({5-Fluoro-1-[2-(methylsulfonyl)ethyl]-1H-indol-2-yl}methyl)spiro[cyclopropane-1,3′-pyrrolo[2,3-c]pyridin]-2′(1′H)-one] | 189 |
| O=C1CN(S(=O)(=O)CCCn2c(CN3C(=O)C4(CC4)c4ccncc43)cc3cc(Cl)ccc32)CCN1 [Example 7-6, 1′-[(5-Chloro-1-{3-[(3-oxopiperazin-1-yl)sulfonyl]propyl}-1H-indol-2-yl)methyl]spiro[cyclopropane-1,3′-pyrrolo[2,3-c]pyridin]-2′(1′H)-one] | 7 |
